This note sets out measurements from patent US20050080027A1, “Optimized production of viral vectors derived from paroviruses in packaging and production cells by hsv infection or treatment with dna methylation inhibitors” (priority 2001, published 2005).

SMILES strings stand for the structures.

The assay deals with HeLa t-derived AAV producer cells. Briefly: Production of rAAV-(B7.2/GM-CSF) in producer cells using different inhibitors or helper viruses (transducing rAAV titer / AAV packaging efficiency). Type of assay: cell-based. The conditions noted are these: AdV MOI 10 alone or with 50 mM Na butyrate, 3 μM trichostatin A or 3 μM 5-azacytidine, or HSV-1 MOI 10 as helper virus, three days after infection. The source says: The use, according to the invention, of the DNA methylation inhibitor leads to an increase in packaging efficiency to a level of at least 10^6, especially 10^7, preferably 10^8, in particular 10^9, transducing particles/ml of crude lyzate or of at least 10^10, especially 10^11, preferably 10^12, in particular 10^13, genomic particles/ml of crude lyzate. This corresponds to 10^5 to 10^8 genomic particles per sown cell. The packaging efficiency can be determined indirectly by using suitable cell lines to determine the transducing AAV titer. While this was effected specifically in this present case by measuring the B7.2-positive cells by fluorescence-labeling B7.2 and counting by means of FACS analysis, another common protein detection method can be used in the case of other transgenes. The transducing titer depends on the detection method and on the cell type employed, which means that it is necessary to select suitable cells when choosing the system for detecting the corresponding parvovirus or AAV serotype, for example HeLa cells in the case of AAV-2. The genomic titer is independent of the cell type. The genomic titer can be ascertained by means of real-time PCR, for example as described by Veldwijk M R et al. (2002) Mol. Ther. 6:272-8.
AdV was administered either alone or in combination with 50 mM Na butyrate (But), 3 μM trichostatin A (TSA) or 3 μM 5-azacytidine (Aza) (Sigma, Deisenhofen). “Standard” means transient cotransfection of HeLa cells with pAAV-(B7.2/GM-CSF) and the AAV-2 rep/cap helper plasmid and infection with adenovirus (AdV) (MOI 10); harvesting, 3 days after infection;
rAAV-(B7.2/GM-CSF) was initially prepared using producer cell lines (e.g. 1×10^6 cells sown in a 6 cm diameter cell culture dish, with the cells being sown 1 day before the infection) by infecting with adenovirus (multiplicity of infection, MOI 10). […] After 72 hours, the lyzates were prepared by freeze/thaw lysis and freed from the cell debris. Adenovirus […] HSV-1 was heat-inactivated at 56° C. […]
For the compound `Nc1ncn([C@@H]2O[C@H](CO)[C@@H](O)[C@H]2O)c(=O)n1` [Aza, 5-azacytidine], the “AAV packaging efficiency (yield of transducing rAAV particles)” value (“AAV packaging efficiency” below) is “restore this AAV packaging efficiency”.

For the compound `CCCC(=O)[O-].[Na+]` [But, Na butyrate], the “AAV packaging efficiency” value is listed as “did not result in an increase in AAV packaging efficiency”.

Take `CC(/C=C/C(=O)NO)=C\[C@@H](C)C(=O)c1ccc(N(C)C)cc1` [TSA, trichostatin A]: the “AAV packaging efficiency” value was “did not result in an increase in AAV packaging efficiency”.
